[DAP] = 2,6-diaminopurine base (2-amino-2'-deoxyadenosine) replacing adenine
Assays:
[1] = tested on: common Beta chain of human GM-CSF, IL-3 and IL-5 receptor; test: Semi-quantitative RT-PCR of common beta chain mRNA in U937 cells treated with antisense; assay type: cell-based; conditions: compared with AS107 containing adenosine, G3PDH housekeeping gene
Protocol: Experiments were performed to assess whether antisense oligonucleotides described in international application WO 99/66037 (incorporated herein) directed against the common beta sub-unit of the IL-3, IL-5 and GM-CSF receptor, could inhibit the expression and the function of this receptor when modified by replacing adenosine by either 2-amino-2′-deoxyadenosine or inosine. TF-1 and U937 cells express high levels of GM-CSF receptors. In addition, TF-1 cells are dependent on GM-CSF for survival. These cells were cultured in RPMI 1640 supplemented with 10% heat-inactivated fetal calf serum, penicillin, streptomycin and 1-glutamine at 37° C. in 5% CO2 (the TF-1 cells were supplemented with GM-CSF). […] The sequence for 107A-DAP was: 5′-GGGTCTGCDapGCGGGDapTGGT-3′ (SEQ ID NO:21); the sequence for 107A-inosine (107A-I) was: 5′-GGGTCTGCIGCGGGIT GGT-3′ (SEQ ID NO:22). The cells were retrieved and washed 3 times. RNA was then retrieved and the presence of the beta chain of the receptor was assessed by semi-quantitative RT-PCR.

[2] = tested on: common Beta chain of human GM-CSF, IL-3 and IL-5 receptor; test: Semi-quantitative RT-PCR of common beta chain mRNA in TF-1 cells treated with antisense; assay type: cell-based; conditions: TF1 cells; compared with AS107 containing adenosine
Protocol: Experiments were performed to assess whether antisense oligonucleotides described in international application WO 99/66037 (incorporated herein) directed against the common beta sub-unit of the IL-3, IL-5 and GM-CSF receptor, could inhibit the expression and the function of this receptor when modified by replacing adenosine by either 2-amino-2′-deoxyadenosine or inosine. TF-1 and U937 cells express high levels of GM-CSF receptors. In addition, TF-1 cells are dependent on GM-CSF for survival. These cells were cultured in RPMI 1640 supplemented with 10% heat-inactivated fetal calf serum, penicillin, streptomycin and 1-glutamine at 37° C. in 5% CO2 (the TF-1 cells were supplemented with GM-CSF). For 12 hours they were either cultured in medium alone or medium with sense (107S: 5′-ACCAT CCCGCTGCAGACCC-3′ (SEQ ID NO:19) or antisense (107A: 5′-GGGTCTGCAGCGGGATGGT-3′; SEQ ID NO:20) oligonucleotides to the common beta sub-unit of the IL-3, IL-5 and GM-CSF receptor. The sequence for 107A-DAP was: 5′-GGGTCTGCDapGCGGGDapTGGT-3′ (SEQ ID NO:21); the sequence for 107A-inosine (107A-I) was: 5′-GGGTCTGCIGCGGGIT GGT-3′ (SEQ ID NO:22). The cells were retrieved and washed 3 times. RNA was then retrieved and the presence of the beta chain of the receptor was assessed by semi-quantitative RT-PCR.

[3] = tested on: human immunodeficiency virus (HIV); conditions: Balzarini et al. 1987; cited from earlier work
lungs/airways = conditions: in vivo; cited from earlier work

## 5′-GGGTCTGCDapGCGGGDapTGGT-3′ (DNA GGGTCTGCNGCGGGNTGGT; DNA, [DAP] at 9, 15, backbone and methylation of C not given here) [AS107-DAP]
[1]
  blocking the mRNA for the common Beta chain, semi-quantitative PCR: at least equally effective
[2]
  blocking mRNA expression of the common Beta chain, semi-quantitative PCR: at least equally effective

## Nc1nc(N)c2ncn([C@H]3CC[C@@H](CO)O3)c2n1 [2-amino-2′,3′-dideoxyadenosine]
[3]
  inhibition of HIV replication in vitro: capable of selectively inhibiting

## OC[C@H]1O[C@@H](n2cnc3c(O)ncnc32)[C@H](O)[C@@H]1O [inosine]
lungs/airways
  bronchoconstriction of the lungs/airways compared to adenosine: does not cause bronchoconstriction
